Laboratory results published in BigSolDB 2.1.

O=C(O)c1cc(C(=O)O)cc(C(=O)O)c1
Conditions | solubility (mole fraction)
in ethanol, 302.89 K | 0.0207
in ethanol, 309.85 K | 0.0228
in ethanol, 312.83 K | 0.0237
in ethanol, 319.06 K | 0.0257
in ethanol, 324.5 K | 0.0277
in ethylene glycol, 305.44 K | 0.00826
in ethylene glycol, 310.56 K | 0.00951
in ethylene glycol, 315.85 K | 0.0112
in ethylene glycol, 321.33 K | 0.0131
in ethylene glycol, 326.03 K | 0.0147
in ethylene glycol, 331.84 K | 0.0178
in isobutanol, 306 K | 0.0078
in isobutanol, 310.65 K | 0.0086
in isobutanol, 314.94 K | 0.00926
in isobutanol, 319.87 K | 0.0104
in isobutanol, 324.75 K | 0.0117
in isobutanol, 330.58 K | 0.0132
in isopropanol, 305.77 K | 0.00706
in isopropanol, 311.02 K | 0.00798
in isopropanol, 315.67 K | 0.00869
in isopropanol, 320.61 K | 0.00949
in isopropanol, 324.58 K | 0.0104
in isopropanol, 330.39 K | 0.0117
in methanol, 298.21 K | 0.012
in methanol, 304.67 K | 0.0138
in methanol, 308.78 K | 0.0151
in methanol, 313.97 K | 0.0169
in water, 301.05 K | 0.00015
in water, 305.47 K | 0.00019
in water, 309.8 K | 0.00025
in water, 315.22 K | 0.00033
in water, 320.56 K | 0.00044
in water, 325.11 K | 0.00055
in water, 329.42 K | 0.00069
